Data taken from ChEMBL document CHEMBL1201862, “PubChem BioAssay data set” (2004).
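In this assay, cells in 96-well plates receive the compound at five concentrations for 48 hours. Endpoints are linearly interpolated between the surrounding concentrations. GI50 is the concentration that inhibits growth by half.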 The source made the active and inactive calls. Cut-off read from the data, not from the text of the source: active = GI50 up to about 1.1 µM and inactive = higher.

Legend:
Experiment in all cases: NCI-60 cell line screen, 48 h
NCI-H23 = system: NCI-H23
RPMI-8226 = system: RPMI-8226
TK-10 = system: TK-10
UACC-62 = system: UACC-62
SNB-75 = system: SNB-75
ACHN = system: ACHN
PC-3 = system: PC-3
SK-OV-3 = system: SK-OV-3
NCI-H522 = system: NCI-H522
NCI/ADR-RES = system: NCI/ADR-RES
CAKI-1 = system: CAKI-1
SN12C = system: SN12C
HCT-15 = system: HCT-15
K562 = system: K562
MDA-N = system: MDA-N
M14 = system: M14
HOP-62 = system: HOP-62
DU-145 = system: DU-145
SF-539 = system: SF-539
UO-31 = system: UO-31

SMILES | GI50 (NCI-H23) | GI50 (RPMI-8226) | GI50 (TK-10) | GI50 (UACC-62) | GI50 (SNB-75) | GI50 (ACHN) | GI50 (PC-3) | GI50 (SK-OV-3) | GI50 (NCI-H522) | GI50 (NCI/ADR-RES) | GI50 (CAKI-1) | GI50 (SN12C) | GI50 (HCT-15) [µM] | GI50 (K562) | GI50 (MDA-N) | GI50 (M14) | GI50 (HOP-62) | GI50 (DU-145) | GI50 (SF-539) | GI50 (UO-31)
C/C(=N/NC(=S)N(Cc1ccccn1)Cc1ccccn1)c1cnccn1 | 0.731 µM (active) | 0.373 µM (active) | 0.071 µM (active) | 0.537 µM (active) | 3.43 µM (inactive) | 0.306 µM (active) | 2.49 µM (inactive) | 0.476 µM (active) | 0.0381 µM (active) | 0.0242 µM (active) | 0.429 µM (active) | 0.208 µM (active) | 0.458 | 0.519 µM (active) | 2.67 µM (inactive) | 0.0622 µM (active) | 0.594 µM (active) | 0.713 µM (active) |  | 
N/N=C(\Nc1ccccc1)SCc1ccccc1 | > 100 µM (inactive) | > 100 µM (inactive) |  | > 100 µM (inactive) | 41.7 µM (inactive) | > 100 µM (inactive) | > 100 µM (inactive) | > 100 µM (inactive) | > 100 µM (inactive) | > 100 µM (inactive) | > 100 µM (inactive) | > 100 µM (inactive) | > 100 | > 100 µM (inactive) | > 100 µM (inactive) | > 100 µM (inactive) | > 100 µM (inactive) | > 100 µM (inactive) | > 100 µM (inactive) | > 100 µM (inactive)
Cc1cc(-c2nc3ccc(F)cc3s2)ccc1NC(=O)[C@H](C)N | 12.9 µM (inactive) | 3.11 µM (inactive) |  | 1.88 µM (inactive) | 11.8 µM (inactive) | 9.33 µM (inactive) | 11.9 µM (inactive) | 13.6 µM (inactive) | 7.74 µM (inactive) | 13.2 µM (inactive) | 8.18 µM (inactive) | 14.8 µM (inactive) | 3.79 |  | 2.61 µM (inactive) | 1.95 µM (inactive) | 8.22 µM (inactive) | 12.7 µM (inactive) | 6.32 µM (inactive) | 4.14 µM (inactive)
CC(C)[C@H](NC(=O)[C@@H](O)[C@H](N)Cc1ccccc1)C(=O)N[C@@H](Cc1ccccc1)C(=O)O | > 100 µM (inactive) | > 100 µM (inactive) | > 100 µM (inactive) | > 100 µM (inactive) | > 100 µM (inactive) | > 100 µM (inactive) | > 100 µM (inactive) | > 100 µM (inactive) | > 100 µM (inactive) | > 100 µM (inactive) | > 100 µM (inactive) | > 100 µM (inactive) | > 100 | > 100 µM (inactive) | > 100 µM (inactive) | > 100 µM (inactive) | > 100 µM (inactive) | > 100 µM (inactive) |  | > 100 µM (inactive)
S=C(N/N=C(\C(=N/NC(=S)N1CCCCC1)c1ccccn1)c1ccccn1)N1CCCCC1 | 44.8 µM (inactive) | 67.9 µM (inactive) | 19.4 µM (inactive) | 26.5 µM (inactive) | 56.1 µM (inactive) | 6.84 µM (inactive) | 35.1 µM (inactive) | 29.1 µM (inactive) | 9.18 µM (inactive) | 7.06 µM (inactive) | 73.6 µM (inactive) |  | 6.87 | 32.5 µM (inactive) | 57.8 µM (inactive) | 15.2 µM (inactive) | 21.3 µM (inactive) | 14.9 µM (inactive) | 35.4 µM (inactive) | 19.2 µM (inactive)
CC1(C)OCC(/C=C\C(O)CC2(C)OCCO2)CO1 (stereo not drawn) |  | > 100 µM (inactive) | > 100 µM (inactive) | > 100 µM (inactive) | > 100 µM (inactive) | > 100 µM (inactive) | > 100 µM (inactive) | > 100 µM (inactive) | > 100 µM (inactive) | > 100 µM (inactive) | > 100 µM (inactive) | > 100 µM (inactive) | > 100 | > 100 µM (inactive) | > 100 µM (inactive) | > 100 µM (inactive) | > 100 µM (inactive) | > 100 µM (inactive) | > 100 µM (inactive) | > 100 µM (inactive)
CC(C)(C)OC(=O)[C@@H]1ON2O[C@H](OC3CCCC3(c3ccccc3)c3ccccc3)C[C@H]3OC(=O)[C@@H]1[C@H]32 (stereo partly drawn) | 46.5 µM (inactive) |  | > 100 µM (inactive) | 98.9 µM (inactive) | 25.8 µM (inactive) | > 100 µM (inactive) | 26.8 µM (inactive) | > 100 µM (inactive) | 32.2 µM (inactive) | 33.9 µM (inactive) | 53.5 µM (inactive) | 58.5 µM (inactive) | 31.8 | 36.4 µM (inactive) | 61.7 µM (inactive) | 40.6 µM (inactive) | 61.1 µM (inactive) | 81.8 µM (inactive) | > 100 µM (inactive) | 71.9 µM (inactive)
C[C@H](CC[C@@H](O)C(C)(C)O)[C@H]1CC[C@@]2(C)[C@@H]3CC=C4[C@@H](CC[C@H](O)C4(C)C)[C@]3(C)C(=O)C[C@]12C [BRYODULCOSIGENIN] | 26.6 µM (inactive) | 13.3 µM (inactive) | > 50 µM (inactive) |  |  | > 50 µM (inactive) | 13.7 µM (inactive) | 42.5 µM (inactive) | 31.7 µM (inactive) | 14.7 µM (inactive) |  | 28.6 µM (inactive) | 19.2 | 19.6 µM (inactive) | 22.9 µM (inactive) | 29 µM (inactive) | > 50 µM (inactive) | > 50 µM (inactive) | > 50 µM (inactive) | 34 µM (inactive)
